Values quoted from earlier work, collected in US10755801B2, “Identifying peptides having T-cell-exposed motifs with known frequency of occurrence in a reference database” (IOGENETICS, LLC, priority 2014, dated 2020).
Ends that are not written are not given here.

Test system: CD8+ responses, HLA A 0201 restricted
Conditions: MART-1 peptides, A*0201, melanoma patients; Kawakami

GIGILTVIL
CD8+ T-cell response: stimulated a response
